Read-outs that look alike come from different tables or passages of the source. Bridge positions count the residues as written; N and C are the ends. Ends that are not written are not given here. Peptide text beside a SMILES is read from it.
Key:
[1] = biological target: T1, biotinylated human β-FXIIa (Homo sapiens, UniProt P00748); test: Surface plasmon resonance binding to FXIIa
T1 construct: purchased Molecular Innovations
Procedure: Binding kinetics of each peptide towards biotinylated human β-FXIIa (Molecular Innovations) and non-labelled zymogen FXII (Haematologic Technologies) were determined using a Biacore T200 machine (Cytiva). For β-FXIIa binding measurements, the running buffer was HBS-EP+(10 mM HEPES, 150 mM NaCl, 3 mM EDTA and 0.05% (v/v) surfactant P20, pH 7.4). Biotinylated β-FXIIa was immobilized on a Sensor Chip CAP (Cytiva) using Biotin CAPture Reagent (Cytiva). A series of concentrations of each peptide were injected as analyte and the binding kinetics were modelled using a 1:1 binding model. Regeneration of sensor surface was performed after each measurement cycle. For FXII binding measurements, the running buffer was PBST (137 mM NaCl, 2.7 mM KCl, 10 mM Na2HPO4, 1.8 mM KH2PO4, 0.05% Tween-20). Non-labelled FXII was immobilized on a Sensor Chip CM5 (Cytiva) using Amine Coupling Kit (Cytiva), achieving a final immobilization level of 2500 RU. Each peptide was flowed through immobilized FXII at 5 μM for 60 s and allowed dissociation for 150 s.

[2] = biological target: T2, bovine trypsin (Bos taurus, UniProt P00760); test: Surface plasmon resonance binding to trypsin
T2 sequence (P00760 24-246): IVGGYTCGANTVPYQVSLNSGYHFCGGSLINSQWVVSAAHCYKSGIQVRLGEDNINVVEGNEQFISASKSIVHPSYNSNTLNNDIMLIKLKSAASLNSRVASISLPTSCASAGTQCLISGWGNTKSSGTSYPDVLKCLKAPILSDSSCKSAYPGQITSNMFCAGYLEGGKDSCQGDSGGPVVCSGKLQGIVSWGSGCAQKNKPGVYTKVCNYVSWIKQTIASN

[3] = biological target: T3, Human β-FXIIa (Homo sapiens, UniProt P00748); test: FXIIa competitive inhibition assay, colorimetric substrate Ac-QRFR-pNA; format: biochemical
T3 construct: Human β-FXIIa was obtained from Molecular Innovations, together with human FXa, human FXIa, human α-thrombin, and human plasma kallikrein; purchased Molecular Innovations; host or cells: purified from human plasma
T3 sequence (P00748 373-615 limits assumed, other chains not shown): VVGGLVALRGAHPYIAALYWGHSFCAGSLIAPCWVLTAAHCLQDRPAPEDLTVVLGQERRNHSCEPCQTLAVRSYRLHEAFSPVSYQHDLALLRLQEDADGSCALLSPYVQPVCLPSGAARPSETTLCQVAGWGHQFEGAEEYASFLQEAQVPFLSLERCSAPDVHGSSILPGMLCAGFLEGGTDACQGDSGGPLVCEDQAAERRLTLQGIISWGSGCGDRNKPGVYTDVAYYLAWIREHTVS
In short: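 Assays run three times in duplicate at pH 8.0 (Tris-HCl, NaCl, CaCl2, Triton X-100). Rates of pNA or MCA release after enzyme–inhibitor equilibration at room temperature were fitted by non-linear regression to the Morrison equation for Ki.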

[4] = Stability in human serum
Procedure: Briefly, peptides were incubated at a final concentration of 30 μM in human serum (human male AB serum, Sigma-Aldrich) at 37° C. for 0, 1, 12 and 24 h. The reaction was stopped at designated times, with the serum proteins being denatured by addition of two volumes of acetonitrile (v/v). The samples were then spun at 17,000 g for 10 min and the amount of peptide in the supernatant was quantified using analytical HPLC. The percentage of peptide remaining at 1, 12 and 24 h was calculated using the area of the serum-treated peptide peak from 0 h as 100%.

[5] = biological target: T4, Human trypsin (Homo sapiens, UniProt P07477); test: Trypsin competitive inhibition assay; format: biochemical
T4 construct: purchased Sigma-Aldrich; host or cells: purified from human tissue
Procedure: (§1) The activity of acyclic and cyclic MCoFx1-5 and analogues thereof was assessed in competitive inhibition assays, as previously described in Swedberg et al. (2016) J Med Chem, 59: 7287-7292. Human β-FXIIa was obtained from Molecular Innovations, together with human FXa, human FXIa, human α-thrombin, and human plasma kallikrein. Human cationic trypsin and human plasmin were obtained from Sigma-Aldrich, and recombinant human matriptase was sourced from R&D Systems. Recombinant human urokinase (uPA) and recombinant human tissue plasminogen activator (tPA) were expressed in Expi293 cells, as previously described in Li et al. (2019) Chembiochem, 20: 46-50. FXIIa inhibition assays were performed in clear, low-binding 96-well plates using 250 μL (final volume) of assay buffer (0.1 M Tris-HCl pH 8.0, 0.1 M NaCl, 10 mM CaCl2 and 0.005% Triton X-100). Inhibitors were serially diluted and incubated with 10 nM FXIIa at room temperature to reach equilibrium. After adding 100 μM Ac-QRFR-pNA substrate (KM=162 μM), enzymatic activity was measured by monitoring release of the pNA moiety using a TECAN infinite M1000 Pro plate reader (A=405 nm, reading interval, 10 s; assay time course, 7 min). Assays were conducted in three times in duplicate. Substrate kinetic constants (Michaelis-Menten) and inhibition constants (Morrison K) were determined by non-linear regression using Prism 7 (GraphPad). Selectivity assays with off-target proteases were performed in a similar way, except that different concentrations of enzyme and substrate were used, as indicated in Table 16. For assays using a fluorescent substrate (peptide-4-methylcoumaryl-7-amide, MCA), black low-binding 96-well plates were used and activity was measured using a TECAN infinite M1000 pro plate reader (λex 360 nm, λem 460 nm, reading interval, 30 s; assay time course, 5-30 min).

[6] = biological target: T5, Human FXa (Homo sapiens, UniProt P00742); test: FXa inhibition assay; format: biochemical
T5 construct: Human β-FXIIa was obtained from Molecular Innovations, together with human FXa, human FXIa, human α-thrombin, and human plasma kallikrein; purchased Molecular Innovations; host or cells: purified from human plasma
T5 sequence (P00742 235-488 limits assumed): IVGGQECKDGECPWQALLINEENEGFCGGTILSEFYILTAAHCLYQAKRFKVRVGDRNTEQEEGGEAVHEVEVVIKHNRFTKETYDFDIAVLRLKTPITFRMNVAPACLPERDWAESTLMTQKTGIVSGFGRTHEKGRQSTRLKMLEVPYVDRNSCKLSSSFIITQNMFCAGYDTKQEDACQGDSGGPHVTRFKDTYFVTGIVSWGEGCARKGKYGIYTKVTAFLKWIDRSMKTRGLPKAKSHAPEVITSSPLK
T5 sequence (P00742 41-179 partner limits assumed): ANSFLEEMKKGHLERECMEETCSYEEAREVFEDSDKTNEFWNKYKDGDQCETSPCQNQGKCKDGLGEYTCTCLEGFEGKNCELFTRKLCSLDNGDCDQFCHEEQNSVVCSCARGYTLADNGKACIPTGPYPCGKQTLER
Procedure: as §1

[7] = biological target: T6, Human FXIa (Homo sapiens, UniProt P03951); test: FXIa inhibition assay; format: biochemical
T6 construct: Human β-FXIIa was obtained from Molecular Innovations, together with human FXa, human FXIa, human α-thrombin, and human plasma kallikrein; purchased Molecular Innovations; host or cells: purified from human plasma
T6 sequence (P03951 388-625 limits assumed): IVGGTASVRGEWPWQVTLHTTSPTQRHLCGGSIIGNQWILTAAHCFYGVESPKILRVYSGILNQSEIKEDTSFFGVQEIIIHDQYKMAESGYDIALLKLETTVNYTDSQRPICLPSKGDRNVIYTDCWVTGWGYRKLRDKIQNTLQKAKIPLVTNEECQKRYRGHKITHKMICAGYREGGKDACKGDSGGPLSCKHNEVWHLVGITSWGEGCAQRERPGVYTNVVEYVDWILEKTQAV
T6 sequence (P03951 19-387 partner limits assumed): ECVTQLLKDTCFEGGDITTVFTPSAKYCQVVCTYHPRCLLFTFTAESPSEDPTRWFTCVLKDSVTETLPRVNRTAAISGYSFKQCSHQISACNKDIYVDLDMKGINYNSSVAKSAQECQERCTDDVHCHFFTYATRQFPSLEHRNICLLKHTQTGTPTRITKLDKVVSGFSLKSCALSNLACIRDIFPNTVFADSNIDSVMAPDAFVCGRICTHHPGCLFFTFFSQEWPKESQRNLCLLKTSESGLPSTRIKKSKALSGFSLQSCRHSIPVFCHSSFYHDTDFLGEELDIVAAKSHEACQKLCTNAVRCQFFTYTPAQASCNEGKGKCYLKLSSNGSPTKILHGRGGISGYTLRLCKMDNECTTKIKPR
Procedure: as §1

[8] = biological target: T7, Human thrombin (Homo sapiens, UniProt P00734); test: Thrombin inhibition assay; format: biochemical
T7 construct: Human β-FXIIa was obtained from Molecular Innovations, together with human FXa, human FXIa, human α-thrombin, and human plasma kallikrein; purchased Molecular Innovations; host or cells: purified from human plasma
Procedure: as §1

[9] = biological target: T8, Human plasma kallikrein (Homo sapiens, UniProt P03952); test: Plasma kallikrein inhibition assay; format: biochemical
T8 construct: Human β-FXIIa was obtained from Molecular Innovations, together with human FXa, human FXIa, human α-thrombin, and human plasma kallikrein; purchased Molecular Innovations; host or cells: purified from human plasma
T8 sequence (P03952 391-638 limits assumed): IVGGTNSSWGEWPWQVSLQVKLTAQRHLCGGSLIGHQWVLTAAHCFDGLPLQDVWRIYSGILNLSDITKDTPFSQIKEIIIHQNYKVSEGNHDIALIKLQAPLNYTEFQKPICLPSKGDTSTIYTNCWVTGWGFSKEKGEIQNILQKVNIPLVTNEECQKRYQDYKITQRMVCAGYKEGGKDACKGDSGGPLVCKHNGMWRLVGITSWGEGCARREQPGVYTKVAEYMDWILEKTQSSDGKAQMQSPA
T8 sequence (P03952 20-390 partner limits assumed): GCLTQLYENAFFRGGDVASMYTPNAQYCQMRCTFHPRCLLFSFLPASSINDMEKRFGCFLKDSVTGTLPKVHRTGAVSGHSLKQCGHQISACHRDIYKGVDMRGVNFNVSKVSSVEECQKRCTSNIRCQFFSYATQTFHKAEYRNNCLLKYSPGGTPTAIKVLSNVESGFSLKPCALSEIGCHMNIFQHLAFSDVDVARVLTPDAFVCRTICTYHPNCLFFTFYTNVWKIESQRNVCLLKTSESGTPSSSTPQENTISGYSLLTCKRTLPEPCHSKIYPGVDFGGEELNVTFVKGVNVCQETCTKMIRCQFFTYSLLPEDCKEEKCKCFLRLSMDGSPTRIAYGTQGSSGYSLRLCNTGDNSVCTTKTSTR
Procedure: as §1

[10] = biological target: T9, Human plasmin (Homo sapiens, UniProt P00747); test: Plasmin inhibition assay; format: biochemical
T9 construct: Human cationic trypsin and human plasmin were obtained from Sigma-Aldrich, and recombinant human matriptase was sourced from R&D Systems; purchased Sigma-Aldrich; host or cells: purified from human plasma
T9 sequence (P00747 581-810 limits assumed): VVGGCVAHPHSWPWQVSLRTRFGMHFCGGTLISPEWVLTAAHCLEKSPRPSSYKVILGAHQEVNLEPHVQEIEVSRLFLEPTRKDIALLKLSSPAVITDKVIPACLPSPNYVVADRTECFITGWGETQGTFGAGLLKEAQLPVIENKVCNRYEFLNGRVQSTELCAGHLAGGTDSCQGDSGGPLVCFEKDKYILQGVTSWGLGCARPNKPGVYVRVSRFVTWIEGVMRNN
T9 sequence (P00747 97-580 partner limits assumed): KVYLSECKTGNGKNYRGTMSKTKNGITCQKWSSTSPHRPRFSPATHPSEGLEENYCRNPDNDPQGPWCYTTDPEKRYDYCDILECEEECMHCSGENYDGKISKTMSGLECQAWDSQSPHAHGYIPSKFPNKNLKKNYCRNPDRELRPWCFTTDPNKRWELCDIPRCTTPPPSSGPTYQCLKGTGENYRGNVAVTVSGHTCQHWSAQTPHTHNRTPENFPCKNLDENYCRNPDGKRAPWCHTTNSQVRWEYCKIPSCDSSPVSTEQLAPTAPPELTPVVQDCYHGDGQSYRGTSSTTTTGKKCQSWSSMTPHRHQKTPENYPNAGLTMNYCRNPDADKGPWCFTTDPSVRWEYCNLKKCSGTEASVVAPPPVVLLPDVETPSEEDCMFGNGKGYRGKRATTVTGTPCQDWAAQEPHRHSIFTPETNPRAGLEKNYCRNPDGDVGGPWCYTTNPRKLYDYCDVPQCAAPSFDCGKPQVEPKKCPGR
Procedure: as §1

[11] = biological target: T10, Rec. human uPA (Homo sapiens, UniProt P00749); test: uPA inhibition assay; format: biochemical
T10 construct: made in house; host or cells: Expi293 cells
Procedure: as §1

[12] = biological target: T11, Rec. human tPA (Homo sapiens, UniProt P00750); test: tPA inhibition assay; format: biochemical
T11 construct: made in house; host or cells: Expi293 cells
T11 sequence (P00750 36-562): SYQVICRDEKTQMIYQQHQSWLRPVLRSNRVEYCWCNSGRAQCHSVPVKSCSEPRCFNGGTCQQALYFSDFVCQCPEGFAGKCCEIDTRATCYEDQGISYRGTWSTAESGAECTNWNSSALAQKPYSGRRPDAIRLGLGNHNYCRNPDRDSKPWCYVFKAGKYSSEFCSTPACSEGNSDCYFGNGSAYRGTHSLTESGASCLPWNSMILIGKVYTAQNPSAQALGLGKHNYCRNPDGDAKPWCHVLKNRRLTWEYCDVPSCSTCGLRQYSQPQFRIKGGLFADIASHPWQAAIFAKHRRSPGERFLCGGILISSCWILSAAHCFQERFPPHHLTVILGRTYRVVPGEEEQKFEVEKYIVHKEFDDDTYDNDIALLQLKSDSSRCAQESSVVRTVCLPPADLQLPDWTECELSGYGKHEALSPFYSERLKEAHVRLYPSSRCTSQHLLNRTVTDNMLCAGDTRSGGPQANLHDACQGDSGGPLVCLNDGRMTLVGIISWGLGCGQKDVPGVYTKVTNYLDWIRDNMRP
Procedure: as §1

[13] = biological target: T12, Rec. human matriptase (Homo sapiens, UniProt Q9Y5Y6); test: Matriptase inhibition assay; format: biochemical
T12 construct: purchased R&D Systems
T12 sequence (Q9Y5Y6 615-855 limits assumed): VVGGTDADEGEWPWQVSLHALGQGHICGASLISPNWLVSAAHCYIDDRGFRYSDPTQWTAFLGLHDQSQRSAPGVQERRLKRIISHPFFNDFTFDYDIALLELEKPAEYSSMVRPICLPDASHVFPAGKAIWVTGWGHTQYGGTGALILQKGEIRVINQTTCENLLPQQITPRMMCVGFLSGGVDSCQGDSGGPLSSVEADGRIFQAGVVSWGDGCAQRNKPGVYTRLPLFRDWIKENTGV
Procedure: as §1

T1 sequence (P00748 373-615 limits assumed, other chains not shown): as the sequence (P00748 373-615 limits assumed, other chains not shown) above

`CC[C@H](C)[C@H](NC(=O)CNC(=O)CNC(=O)[C@@H](N)CC(=O)O)C(=O)N[C@H]1CSSC[C@@H]2NC(=O)[C@H](C)NC(=O)CNC(=O)[C@@H]3CCCN3C(=O)[C@@H]3CSSC[C@@H](C(=O)NCC(=O)N[C@@H](CO)C(=O)NCC(=O)N[C@@H](Cc4ccc(O)cc4)C(=O)O)NC(=O)[C@H](Cc4ccccc4)NC(=O)[C@H](CCCNC(=N)N)NC(=O)[C@H]([C@@H](C)O)NC(=O)[C@H](C)NC(=O)[C@H](CCCNC(=N)N)NC(=O)[C@H](CSSC[C@H](NC(=O)[C@H](CC(C)C)NC(=O)[C@H](CCCNC(=N)N)NC(=O)CNC(=O)[C@H]([C@@H](C)CC)NC(=O)[C@H](CCCNC(=N)N)NC(=O)[C@@H]4CCCN4C1=O)C(=O)N[C@@H](CCCNC(=N)N)C(=O)N[C@@H](CCCNC(=N)N)C(=O)N[C@@H](CC(=O)O)C(=O)N[C@@H](CO)C(=O)N[C@@H](CC(=O)O)C(=O)N3)NC(=O)[C@H]([C@@H](C)CC)NC2=O` [MCoFx1 acyclic] (H-DGGICPRIGRLCRRDSDCPGACICRATRFCGSGY-OH; disulfide 5-22, 12-24, 18-30) gave a Kd [1] of 1.89 ± 0.04 nM, a Kd [2] of 59.6 nM and a Ki [3] of 0.73 ± 0.2 nM. For the same molecule, the “resistance to serum proteases (in words)” value ([4]; human serum, 37° C., up to 24 h) was “highly resistant to serum proteases”.

Molecule `CC[C@H](C)[C@@H]1NC(=O)[C@@H]2CSSC[C@H](NC(=O)[C@@H](NC(=O)CNC(=O)CNC(=O)[C@@H](N)CC(=O)O)C(C)C)C(=O)N3CCC[C@H]3C(=O)N[C@@H](CCCNC(=N)N)C(=O)N[C@@H](C(C)C)C(=O)NCC(=O)N[C@@H](Cc3c[nH]c4ccccc34)C(=O)N[C@@H](CCCNC(=N)N)C(=O)N[C@H]3CSSC[C@H](NC1=O)C(=O)N[C@@H](Cc1ccc(O)cc1)C(=O)N1CCC[C@H]1C(=O)N[C@@H]([C@@H](C)O)C(=O)N[C@@H](CCCCN)C(=O)N[C@@H](Cc1c[nH]c4ccccc14)C(=O)N[C@H](C(=O)NCC(=O)N[C@@H](CO)C(=O)NCC(=O)N[C@@H](CO)C(=O)O)CSSC[C@H](NC(=O)[C@H](CC(=O)O)NC(=O)[C@H](CO)NC(=O)[C@H](CC(=O)O)NC(=O)[C@H](CCCNC(=N)N)NC(=O)[C@H](CCCNC(=N)N)NC3=O)C(=O)N1CCC[C@H]1C(=O)NCC(=O)N[C@@H](C)C(=O)N2` [MCoFx4 acyclic] (H-DGGVCPRVGWRCRRDSDCPGACICYPTKWCGSGS-OH; disulfide 5-22, 12-24, 18-30) has a Kd [1] of 73.8 ± 6.3 nM, a Kd [2] of 15.1 nM and a Ki [3] of 17 ± 0.9 nM.

`CC[C@H](C)[C@@H]1NC(=O)[C@@H]2CSSC[C@@H]3NC(=O)[C@H](C(C)C)NC(=O)CNC(=O)CNC(=O)[C@H](CC(=O)O)NC(=O)[C@H](CO)NC(=O)CNC(=O)[C@H](CO)NC(=O)CNC(=O)[C@@H]4CSSC[C@H](NC(=O)[C@H](CC(=O)O)NC(=O)[C@H](CO)NC(=O)[C@H](CC(=O)O)NC(=O)[C@H](CCCNC(=N)N)NC(=O)[C@H](CCCNC(=N)N)NC(=O)[C@H](CSSC[C@H](NC1=O)C(=O)N[C@@H](Cc1ccc(O)cc1)C(=O)N1CCC[C@H]1C(=O)N[C@@H]([C@@H](C)O)C(=O)N[C@@H](CCCCN)C(=O)N[C@@H](Cc1c[nH]c5ccccc15)C(=O)N4)NC(=O)[C@H](CCCNC(=N)N)NC(=O)[C@H](Cc1c[nH]c4ccccc14)NC(=O)CNC(=O)[C@H](C(C)C)NC(=O)[C@H](CCCNC(=N)N)NC(=O)[C@@H]1CCCN1C3=O)C(=O)N1CCC[C@H]1C(=O)NCC(=O)N[C@@H](C)C(=O)N2` [MCoFx4 cyclic] (cyclo(ACICYPTKWCGSGSDGGVCPRVGWRCRRDSDCPG); disulfide 2-19, 4-26, 10-32) gave a Kd ([1]; Table 8, cyclic form, read-out: KD (nM) FXIIa Cyclic) of 14.4 ± 1.1 nM, a Kd ([2]; Table 8, cyclic form, read-out: KD (nM) Trypsin Cyclic) of 4.09 nM and a Ki ([3]; Table 7, FXIIa, cyclic form of the peptide, read-out: Ki (nM) Cyclic) of 5.5 ± 0.5 nM.

Molecule `CC[C@H](C)[C@@H]1NC(=O)[C@@H]2CSSC[C@@H]3NC(=O)[C@H](C(C)C)NC(=O)CNC(=O)CNC(=O)[C@H](CC(=O)O)NC(=O)[C@H](CO)NC(=O)CNC(=O)[C@H](CO)NC(=O)CNC(=O)[C@@H]4CSSC[C@H](NC(=O)[C@H](CC(=O)O)NC(=O)[C@H](CO)NC(=O)[C@H](CC(=O)O)NC(=O)[C@H](CCCNC(=N)N)NC(=O)[C@H](CCCNC(=N)N)NC(=O)[C@H](CSSC[C@H](NC1=O)C(=O)N[C@@H](CCCNC(=N)N)C(=O)N[C@@H](C)C(=O)N[C@@H]([C@@H](C)O)C(=O)N[C@@H](CCCNC(=N)N)C(=O)N[C@@H](Cc1ccccc1)C(=O)N4)NC(=O)[C@H](CCCCN)NC(=O)[C@H](CCCCN)NC(=O)[C@H](CC(C)C)NC(=O)[C@H]([C@@H](C)CC)NC(=O)[C@H](CCCCN)NC(=O)[C@@H]1CCCN1C3=O)C(=O)N1CCC[C@H]1C(=O)NCC(=O)N[C@@H](C)C(=O)N2` [cMCoTI-fxL5] (cyclo(ACICRATRFCGSGSDGGVCPKILKKCRRDSDCPG); disulfide 2-19, 4-26, 10-32) has a Ki [3] of 66 nM, a Ki [5] of 0.08 nM and an IC50 [6] of over 5000 nM. The inhibition at 5 µM ([6]; read-out: percent inhibition FXa) was 0%, the IC50 [7] was over 5000 nM and the inhibition at 5 µM ([7]; read-out: percent inhibition FXIa) was 1%. It also gave an IC50 [8] of over 5000 nM, an inhibition at 5 µM ([8]; read-out: percent inhibition Thrombin) of 3% and an IC50 [9] of over 5000 nM. The inhibition at 5 µM ([9]; read-out: percent inhibition Plasma kallikrein) was 0%, the Ki [10] was 31 nM and the IC50 [11] was over 5000 nM. The inhibition at 5 µM ([11]; read-out: percent inhibition uPA) was 0%, the IC50 [12] was over 5000 nM and the inhibition at 5 µM ([12]; read-out: percent inhibition tPA) was 1%. For the same molecule, the Ki [13] was 17 nM.

In the case of EAIYAAPFAKKK [reference compound], the “time to degradation in human serum” value [4] is reported as at most 1 h.

From patent US20240344241A1, “PROTEINACEOUS MOLECULES AND USES THEREFOR” (THE UNIVERSITY OF QUEENSLAND, priority 2021, published 2024)
